Results reported in patent US20060258632A1, “Methods and agents for treating cardiovascular diseases” (Fraunhofer-Gesellschaft zur Forderung der angewandten …, priority 2002, published 2006).

Key:
[1] = tested on: 5-alpha steroid reductase; test: Testosterone metabolism in human and rat heart microsomal suspensions (HPLC of metabolites); type: biochemical; details: FIG. 3
alpha-MHC expression = details: testosterone substitution (100 μM, 8 h); rat heart muscle cells; FIGS. 7 and 8
Protocol: (§1) Total RNA was isolated from heart tissue using the Total RNA Isolation Kit (Macherey-Nagel, Germany) according to the manufacturer's instructions. The quality of the isolated RNA was assessed by evaluating the ribosomal bands on agarose gel (1%). Of each sample, 2 μg RNA was used for reverse transcription. RNA and random primer (Roche Diagnostics, Mannheim, Germany) were preheated at 70° C. for 10 min. and subsequently incubated with 5×RT-AMV buffer (Roche Diagnostics, Mannheim, Germany), dNTPs (1 mM; Roche Diagnostics, Mannheim, Germany), 40U RNAse inhibitor (Stratagene, Amsterdam, Netherlands) and 20U AMV-RT (Promega, Mannheim, Germany) at a total volume of 20 μl for 60 min. at 42° C. […]
(§2) The studies were conducted With a lightcyler (Roche Diagnostics, Mannheim, Germany). […] By the end of each extension phase, fluorescence was measured to be used for evaluation. To guarantee that no unspecific primer dimers are measured, fluorescence detection was conducted above the temperature characteristic of primer dimers (as assessed in preliminary studies). Amplification was followed by a melting curve analysis, measuring fluorescence by slowly increasing the temperature of the DNA synthesis products from 65° C. to 95° C. […] The exact amount of the obtained PCR product was determined by co-amplification of standardized cardiac cDNA and according to the manufacturer's instructions. […]

[2] = tested on: androgen receptor expression; test: Androgen receptor expression in cultivated rat heart muscle cells (real-time RT-PCR); type: cell-based; details: testosterone added to culture medium (100 μM); isolated rat heart muscle cells; FIG. 5c
Protocol: as §1, §2

SMILES | 5-alpha-DHT production decreased ([1]; finasteride 25 μM, heart microsomes, 100 μM testosterone, 4 h at 37° C.) | production of dihydrotestosterone in the heart tissue ([1]; inhibition of 5-alpha reductase) | alpha-MHC expression (alpha-MHC expression) | androgen receptor expression [2]
CC(C)(C)NC(=O)[C@H]1CC[C@H]2[C@@H]3CC[C@H]4NC(=O)C=C[C@]4(C)[C@H]3CC[C@]12C [finasteride] | 60% | reduced and normalized | – | –
C[C@]12CC[C@H]3[C@@H](CCC4=CC(=O)CC[C@@]43C)[C@@H]1CC[C@@H]2O [testosterone] | – | – | normalization | reduces and normalizes
